Experimental data: PMC3676432 (Journal of neurochemistry, 2013)

Tests used:
Assay type in all cases: cell-based
[1] = biological target: wild-type mouse muscle nAChR (αC192S-C193S background) (Mus musculus, UniProt P02716+P04756+P04760, C212S/C213S); test: Effect of reducing/oxidizing reagents on ACh-induced current amplitude; settings: DTT 10 mM, 2 min, ACh EC20–50
[2] = biological target: mouse muscle nAChR αT254C (Mus musculus, UniProt P02716+P04756+P04760, C212S/C213S/T274C); test: as above; settings: DTT 10 mM, 2 min; T254C; ACh EC20–50
Chain of mouse muscle nAChR αT254C (P04756 21-457 C212S/C213S/T274C): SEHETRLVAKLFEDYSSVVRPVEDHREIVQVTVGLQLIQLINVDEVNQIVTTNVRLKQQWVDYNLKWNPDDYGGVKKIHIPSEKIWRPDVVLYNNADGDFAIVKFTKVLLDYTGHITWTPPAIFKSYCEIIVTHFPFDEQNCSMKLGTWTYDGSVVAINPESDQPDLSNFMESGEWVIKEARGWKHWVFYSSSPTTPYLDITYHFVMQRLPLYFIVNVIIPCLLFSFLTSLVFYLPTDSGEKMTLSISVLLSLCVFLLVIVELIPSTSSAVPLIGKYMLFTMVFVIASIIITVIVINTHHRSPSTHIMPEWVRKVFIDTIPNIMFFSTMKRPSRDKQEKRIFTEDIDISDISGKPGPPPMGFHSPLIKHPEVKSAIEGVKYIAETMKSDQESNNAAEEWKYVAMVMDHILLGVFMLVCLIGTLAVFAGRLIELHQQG
Chain of mouse muscle nAChR αT254C (P09690 24-501 partner): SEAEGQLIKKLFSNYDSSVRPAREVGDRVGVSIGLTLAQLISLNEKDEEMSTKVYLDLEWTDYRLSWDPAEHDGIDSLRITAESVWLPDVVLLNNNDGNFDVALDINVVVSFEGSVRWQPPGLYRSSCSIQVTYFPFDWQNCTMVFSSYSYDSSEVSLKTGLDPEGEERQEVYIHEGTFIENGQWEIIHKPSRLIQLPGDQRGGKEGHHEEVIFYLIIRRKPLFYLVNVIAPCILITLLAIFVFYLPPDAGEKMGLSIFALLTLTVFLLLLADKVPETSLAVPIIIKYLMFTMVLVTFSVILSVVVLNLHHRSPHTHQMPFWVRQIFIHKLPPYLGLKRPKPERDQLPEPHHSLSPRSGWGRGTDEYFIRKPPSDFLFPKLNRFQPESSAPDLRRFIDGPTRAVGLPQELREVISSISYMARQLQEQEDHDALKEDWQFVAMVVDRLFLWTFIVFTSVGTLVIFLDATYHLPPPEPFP
Chain of mouse muscle nAChR αT254C (P04760 23-519): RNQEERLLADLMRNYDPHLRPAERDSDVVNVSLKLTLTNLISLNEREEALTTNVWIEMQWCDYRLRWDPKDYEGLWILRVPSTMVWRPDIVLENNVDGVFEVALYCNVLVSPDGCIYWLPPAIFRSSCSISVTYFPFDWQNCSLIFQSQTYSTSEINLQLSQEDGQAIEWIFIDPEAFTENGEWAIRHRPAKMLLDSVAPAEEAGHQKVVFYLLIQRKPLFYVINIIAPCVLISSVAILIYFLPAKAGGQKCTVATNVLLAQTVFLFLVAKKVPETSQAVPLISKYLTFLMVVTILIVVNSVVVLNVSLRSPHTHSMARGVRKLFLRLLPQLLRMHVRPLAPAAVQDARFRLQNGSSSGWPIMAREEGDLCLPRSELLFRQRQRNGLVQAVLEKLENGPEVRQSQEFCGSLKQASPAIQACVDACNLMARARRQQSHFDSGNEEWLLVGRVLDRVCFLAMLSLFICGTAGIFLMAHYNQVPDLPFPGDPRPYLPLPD
Chain of mouse muscle nAChR αT254C (P02716 25-520): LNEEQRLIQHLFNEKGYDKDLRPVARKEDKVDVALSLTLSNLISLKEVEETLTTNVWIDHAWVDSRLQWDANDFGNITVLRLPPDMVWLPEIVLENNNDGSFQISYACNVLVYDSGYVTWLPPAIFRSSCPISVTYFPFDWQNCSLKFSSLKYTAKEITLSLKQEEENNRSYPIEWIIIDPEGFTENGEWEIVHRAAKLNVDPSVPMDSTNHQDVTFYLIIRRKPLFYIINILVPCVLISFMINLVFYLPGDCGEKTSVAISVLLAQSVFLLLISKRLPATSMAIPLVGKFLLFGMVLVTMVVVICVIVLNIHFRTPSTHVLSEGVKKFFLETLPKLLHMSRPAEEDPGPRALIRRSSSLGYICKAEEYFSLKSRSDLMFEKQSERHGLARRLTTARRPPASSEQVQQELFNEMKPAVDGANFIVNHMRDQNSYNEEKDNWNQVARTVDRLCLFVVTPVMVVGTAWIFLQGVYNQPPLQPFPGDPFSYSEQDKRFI

[3] = biological target: mouse muscle nAChR αT254C+M278C (Mus musculus, UniProt P02716+P04756+P04760, C212S/C213S/M298C/T274C); settings: 2 min
Chain of mouse muscle nAChR αT254C+M278C (P04756 21-457 C212S/C213S/T274C/M298C): as the sequence (P04756 21-457 C212S/C213S/T274C) above, with M278C counted along it
Chain of mouse muscle nAChR αT254C+M278C (P09690 24-501 partner): as the sequence (P09690 24-501 partner) above
Chain of mouse muscle nAChR αT254C+M278C (P04760 23-519): as the sequence (P04760 23-519) above
Chain of mouse muscle nAChR αT254C+M278C (P02716 25-520): as the sequence (P02716 25-520) above

[4] = biological target: mouse muscle nAChR αT254C+L279C (Mus musculus, UniProt P02716+P04756+P04760, C212S/C213S/L299C/T274C); settings: 2 min
Chain of mouse muscle nAChR αT254C+L279C (P04756 21-457 C212S/C213S/T274C/L299C): as the sequence (P04756 21-457 C212S/C213S/T274C) above, with L279C counted along it
Chain of mouse muscle nAChR αT254C+L279C (P09690 24-501 partner): as the sequence (P09690 24-501 partner) above
Chain of mouse muscle nAChR αT254C+L279C (P04760 23-519): as the sequence (P04760 23-519) above
Chain of mouse muscle nAChR αT254C+L279C (P02716 25-520): as the sequence (P02716 25-520) above

[5] = second DTT 10 mM, after Cu:Phen and EGTA

Chain of wild-type mouse muscle nAChR (αC192S-C193S background) (P04756 21-457 C212S/C213S): as the sequence (P04756 21-457 C212S/C213S/T274C) above, with C254T counted along it
Chain of wild-type mouse muscle nAChR (αC192S-C193S background) (P09690 24-501 partner): as the sequence (P09690 24-501 partner) above
Chain of wild-type mouse muscle nAChR (αC192S-C193S background) (P04760 23-519): as the sequence (P04760 23-519) above
Chain of wild-type mouse muscle nAChR (αC192S-C193S background) (P02716 25-520): as the sequence (P02716 25-520) above

Row | Compound | ACh-induced current amplitude after DTT compared to initial current [1] | ACh-induced current amplitude after DTT compared to initial current [2] | increase of current amplitudes by DTT after Cu:Phen [3, 5] [%] | decrease of current amplitudes by DTT after Cu:Phen [4, 5] [%] | EGTA effect on ACh-induced current amplitudes ([3]; EGTA 2 mM, after Cu:Phen) [%] | EGTA effect on ACh-induced current amplitudes ([4]; EGTA 2 mM, after Cu:Phen) [%]
1 | O[C@@H](CS)[C@@H](O)CS (racemic) [DTT, Dithiothreitol] | not significantly altered | not significantly altered | 29 ± 1 | 47 ± 11 |  | 
2 | O=C(O)CN(CCOCCOCCN(CC(=O)O)CC(=O)O)CC(=O)O [EGTA, Ethylene glycol tetraacetic acid] |  |  |  |  | 1 ± 2 | −9 ± 3
